Results reported in patent publication US20240059703A1 (AMGEN INC., priority 2021, published 2024).
pIC50: −log10 of the molar value.

These molecules were tested against KRAS G12C (Homo sapiens (Human), UniProt P01116, C118A/G12C) (assay: 2 h coupled exchange assay). Details: Avg 2 h Coupled exchange IC50, 2 h compound pre-incubation.
Assay type: biochemical
Procedure: The term “2 h coupled exchange assay” or “20 h coupled exchange assay” as used herein refers to the assay described in the Section entitled “BIOLOGICAL EVALUATION.”

Chain of KRAS G12C (P01116 other isoform, or with tags, fused parts or gaps G12C/C118A): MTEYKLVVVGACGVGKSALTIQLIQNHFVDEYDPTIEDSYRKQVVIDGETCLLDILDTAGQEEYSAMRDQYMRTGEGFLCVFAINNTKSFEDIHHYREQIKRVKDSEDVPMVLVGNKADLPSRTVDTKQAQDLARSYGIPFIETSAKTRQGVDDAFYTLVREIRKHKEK

| Compound | pIC50 |
| --- | --- |
| C=CC(=O)N1CC2(CCN(c3nc4cc(-c5ocnc5C)ccc4c(-c4ccccc4F)c3C#N)C2)C1 [Example 17-10, 4-(2-fluorophenyl)-7-(4-methyl-1,3-oxazol-5-yl)-2-(2-(2-propenoyl)-2,6-diazaspiro[3.4]octan-6-yl)-3-quinolinecarbonitrile] | 6.24 |
| C=CC(=O)N1CC2(CCN(c3nc4c(c(-c5c(C)ccc6cnn(C)c56)c3C)COC(C)(C)C4)C2)C1 (single isomer, unassigned) [Example 14-100, (M)-1-(6-(4-(1,6-dimethyl-1H-indazol-7-yl)-3,7,7-trimethyl-7,8-dihydro-5H-pyrano[4,3-b]pyridin-2-yl)-2,6-diazaspiro[3.4]octan-2-yl)-2-propen-1-one] | 6.22 |
| C=CC(=O)N1CC2(CCN(c3nc4c(c(-c5c(C)ccc6cn[nH]c56)c3C#N)COC(C)(C)C4)C2)C1 (single isomer, unassigned) [Example 14-82, (M)-7,7-dimethyl-4-(6-methyl-1H-indazol-7-yl)-2-(2-(2-propenoyl)-2,6-diazaspiro[3.4]octan-6-yl)-7,8-dihydro-5H-pyrano[4,3-b]pyridine-3-carbonitrile] | 5.24 |
| C=CC(=O)N1CC2(CCN(c3nc4c(c(-c5c(C)ccc6cnn(C)c56)c3C)COC(C)(C)C4)C2)C1 [Example 14-37, 1-(6-(4-(1,6-dimethyl-1H-indazol-7-yl)-3,7,7-trimethyl-7,8-dihydro-5H-pyrano[4,3-b]pyridin-2-yl)-2,6-diazaspiro[3.4]octan-2-yl)-2-propen-1-one] | 6.32 |
| C=CC(=O)N1CC2(CCN(c3nc4c(c(-c5ccc(F)c6sc(N)c(C#N)c56)c3C)COC(C)(C)C4)C2)C1 [Example 14-106, 2-amino-7-fluoro-4-(3,7,7-trimethyl-2-(2-(2-propenoyl)-2,6-diazaspiro[3.4]octan-6-yl)-7,8-dihydro-5H-pyrano[4,3-b]pyridin-4-yl)-1-benzothiophene-3-carbonitrile] | 7.34 |
| C=CC(=O)N1CC2(CCN(c3nc4c(c(-c5cccc6cc(O)ccc56)c3F)COC(C)(C)C4)C2)C1 [Example 14-65, 1-(6-(3-fluoro-4-(6-hydroxy-1-naphthalenyl)-7,7-dimethyl-7,8-dihydro-5H-pyrano[4,3-b]pyridin-2-yl)-2,6-diazaspiro[3.4]octan-2-yl)-2-propen-1-one] | 6.44 |
| C=CC(=O)N1CC2(CCN(c3nc4c(c(-c5[nH]c(=O)c(Br)c6ccccc56)c3C#N)CCC(C)(C)C4)C2)C1 [Example 33-1, 4-(4-bromo-3-oxo-2,3-dihydro-1-isoquinolinyl)-7,7-dimethyl-2-(2-(2-propenoyl)-2,6-diazaspiro[3.4]octan-6-yl)-5,6,7,8-tetrahydro-3-quinolinecarbonitrile] | 6.21 |
| C=CC(=O)N1CC2(CCN(c3nc4c(c(-c5c(C)ccc6cnn(C)c56)c3F)C[C@H]3C[C@@H]4C3(C)C)C2)C1 (single isomer, unassigned) [Example 14-75] | 6.14 |
| [2H]C([2H])([2H])n1ncc2ccc(C)c(-c3c(C)c(N4CCC5(CN(C(=O)C=C)C5)C4)nc4c3COC(C)(C)C4)c21 [Example 14-36, 1-(6-(3,7,7-trimethyl-4-(6-methyl-1-(^2H3)methyl-1H-indazol-7-yl)-7,8-dihydro-5H-pyrano[4,3-b]pyridin-2-yl)-2,6-diazaspiro[3.4]octan-2-yl)-2-propen-1-one] | 6.65 |

Same assay, conditions: Avg 2 h Coupled exchange IC50, 2 h compound pre-incubation, SOS-mediated nucleotide exchange

| Compound | pIC50 |
| --- | --- |
| C=CC(=O)N1CC2(CCN(c3nc4c(c(-c5c(C)ccc6cn[nH]c56)c3C)CCC(C)(C)C4)C2)C1 [Example 2-23, 1-(6-(3,7,7-trimethyl-4-(6-methyl-1H-indazol-7-yl)-5,6,7,8-tetrahydro-2-quinolinyl)-2,6-diazaspiro[3.4]octan-2-yl)-2-propen-1-one] | 6.13 |
| C=CC(=O)N1CC2(CCN(c3nc4c(c(-c5c(C)ccc6cnn(C)c56)c3C#N)CCC4(C)C)C2)C1 (single isomer, unassigned) [Example 13-102, (P)-2-(2-acryloyl-2,6-diazaspiro[3.4]octan-6-yl)-4-(1,6-dimethyl-1H-indazol-7-yl)-7,7-dimethyl-6,7-dihydro-5H-cyclopenta[b]pyridine-3-carbonitrile] | 3.85 |
| C=CC(=O)N1CC2(CCN(c3nc4c(c(-c5cccc6cc(O)ccc56)c3C)CCC(C)(C)C4)C2)C1 (single isomer, unassigned) [Example 2-14, (M)-1-(6-(4-(6-hydroxy-1-naphthalenyl)-3,7,7-trimethyl-5,6,7,8-tetrahydro-2-quinolinyl)-2,6-diazaspiro[3.4]ctan-2-yl)-2-opropen-1-one] | 5.54 |
| C=CC(=O)N1CC2(CCN(c3nc4c(c(-c5cc(O)c(F)c6ccccc56)c3C#N)COC(C)(C)C4)C2)C1 [Example 13-71, 4-(4-fluoro-3-hydroxy-1-naphthalenyl)-7,7-dimethyl-2-(2-(2-propenoyl)-2,6-diazaspiro[3.4]octan-6-yl)-7,8-dihydro-5H-pyrano[4,3-b]pyridine-3-carbonitrile] | 6.44 |
| C=CC(=O)N1CC2(CCN(c3cn4ccnc4c(-c4cc(O)ccc4C)c3C#N)C2)C1 [Example 1-29, 8-(5-hydroxy-2-methylphenyl)-6-(2-(2-propenoyl)-2,6-diazaspiro[3.4]octan-6-yl)imidazo[1,2-a]pyridine-7-carbonitrile] | 5.45 |
| C=CC(=O)N1CC2(CCN(c3nc4c(c(-c5cc(O)cc6ccccc56)c3C#N)C[C@H]3C[C@@H]4C3(C)C)C2)C1 (single isomer, unassigned) [Example 13-130] | 4.88 |
| C=CC(=O)N1CC2(CCN(c3nc4c(c(-c5c(O)cccc5Cl)c3C#N)C[C@H]3C[C@@H]4C3)C2)C1 (single isomer, unassigned) [Example 13-66] | 4.12 |
| C=CC(=O)N1CC2(CCN(c3nc4c(c(-c5cc(Cl)cc6cc[nH]c56)c3C#N)COC(C)(C)C4)C2)C1 [Example 12-7, 4-(5-chloro-1H-indol-7-yl)-7,7-dimethyl-2-(2-(2-propenoyl)-2,6-diazaspiro[3.4]octan-6-yl)-7,8-dihydro-5H-pyrano[4,3-b]pyridine-3-carbonitrile] | 6.36 |
| C=CC(=O)N1CC2(CCN(c3nc4c(c(-c5c(C)ccc6cnn(C)c56)c3C#N)CO[C@@H](C3CC3)C4)C2)C1 (single isomer, unassigned) [Example 13-119] | 5.17 |
| C=CC(=O)N1CC2(CCN(c3nc4c(c(-c5cc(O)ccc5C)c3C#N)COC(C)(C)C4)C2)C1 (single isomer, unassigned) [Example 13-127, 4-(5-hydroxy-2-methylphenyl)-7,7-dimethyl-2-(2-(2-propenoyl)-2,6-diazaspiro[3.4]octan-6-yl)-7,8-dihydro-5H-pyrano[4,3-b]pyridine-3-carbonitrile] | 3.82 |
| C=CC(=O)N1CC2(CCN(c3nc4c(c(-c5c(C)ccc6[nH]ncc56)c3C#N)CN(C)CC4)C2)C1 [Example 13-22, 6-methyl-4-(5-methyl-1H-indazol-4-yl)-2-(2-(2-propenoyl)-2,6-diazaspiro[3.4]octan-6-yl)-5,6,7,8-tetrahydro-1,6-naphthyridine-3-carbonitrile] | 6.59 |
| C=CC(=O)N1CC2(CCN(c3nc4c(c(-c5c(C)ccc6cnn(C)c56)c3C#N)[C@H]3C[C@@H](C4)C3)C2)C1 (single isomer, unassigned) [Example 13-132] | 4.61 |
| C=CC(=O)N1CC2(CCN(c3nc4c(c(-c5c(C)ccc6[nH]ncc56)c3C#N)CCC4(F)F)C2)C1 [Example 13-58, 7,7-difluoro-4-(5-methyl-1H-indazol-4-yl)-2-(2-(2-propenoyl)-2,6-diazaspiro[3.4]octan-6-yl)-6,7-dihydro-5H-cyclopenta[b]pyridine-3-carbonitrile] | 6.29 |
| C=CC(=O)N1CC2(CCN(c3nc4c(c(-c5ccc(F)c6cc[nH]c56)c3C#N)COC(C)(C)C4)C2)C1 [Example 12-3, 4-(4-fluoro-1H-indol-7-yl)-7,7-dimethyl-2-(2-(2-propenoyl)-2,6-diazaspiro[3.4]octan-6-yl)-7,8-dihydro-5H-pyrano[4,3-b]pyridine-3-carbonitrile] | 6.21 |
| C=CC(=O)N1CC2(CCN(c3nc4c(c(-c5c(C)ccc6cnn(C)c56)c3Cl)COC(C)(C)C4)C2)C1 (single isomer, unassigned) [Example 2-87, (M)-1-(6-(3-chloro-4-(1,6-dimethyl-1H-indazol-7-yl)-7,7-dimethyl-7,8-dihydro-5H-pyrano[4,3-b]pyridin-2-yl)-2,6-diazaspiro[3.4]octan-2-yl)-2-propen-1-one] | 6.94 |
| C=CC(=O)N1CC2(CCN(c3nc4c(c(-c5cc(O)ccc5C)c3C#N)[C@@H]3CC[C@H]4C3)C2)C1 (single isomer, unassigned) [Example 14-10] | 5.94 |
| C=CC(=O)N1CC2(CCN(c3nc4c(c(-c5ccccc5Cl)c3C#N)CC(C)(C)C4)C2)C1 [Example 13-23, 4-(2-chlorophenyl)-6,6-dimethyl-2-(2-(2-propenoyl)-2,6-diazaspiro[3.4]octan-6-yl)-6,7-dihydro-5H-cyclopenta[b]pyridine-3-carbonitirle] | 6.11 |
| C=CC(=O)N1CC2(CCN(c3nc4c(c(-c5c(C)c(Cl)cc6cnn(C)c56)c3C)CCN(C(C)C)C4)C2)C1 (single isomer, unassigned) [Example 12-24, (M)-1-(6-(4-(5-chloro-1,6-dimethyl-1H-indazol-7-yl)-3-methyl-7-(2-propanyl)-5,6,7,8-tetrahydro-1,7-naphthyridin-2-yl)-2,6-diazaspiro[3.4]octan-2-yl)-2-propen-1-one] | 7.30 |

Same assay, conditions: read-out: Avg 2 h Coupled exchange IC50, 2 h compound pre-incubation

| Compound | pIC50 |
| --- | --- |
| C=CC(=O)N1CC2(CCN(c3nc4ccccc4c(-c4c(C)ccc5[nH]ncc45)c3C=C)C2)C1 (atropisomer, axis not shown; (M)) [Example 26-2, (M)-1-(6-(3-ethenyl-4-(5-methyl-1H-indazol-4-yl)-2-quinolinyl)-2,6-diazaspiro[3.4]octan-2-yl)-2-propen-1-one] | 4.46 |
